Patent publication US10702515B2, “Compositions containing aromatic aldehydes and their use in treatments” (Allergan, Inc., priority 2001, dated 2020)

Key:
[1] = system: IL-1 induction of PGE-2; experiment: IL-1 induced PGE-2 in human skin fibroblasts (ELISA); assay type: cell-based; settings: for IL-1 induction of PGE-2 blocked: Example 2 dose-response (FIG. 3); for inhibition at 100 µM: Example 3 (FIG. 4A); for inhibition at 50 µM: Example 3 (FIG. 4A/4B)
Method: (§1) For this experiment, human skin fibroblasts were seeded into 12 well culture dishes, at a density of 80,000 cells/well in tissue culture medium and left overnight to attach to the dish. The next day, medium was removed and replaced with fresh medium containing either 1% ethanol as a diluent control, IL-1 at a concentration of 500 picograms/ml, or IL-1 plus 4-EB at either 250 μM or 500 μM. Cells were incubated for an additional 24 hours and at this time, the medium was removed and assayed by ELISA for the presence of PGE-2 the culture medium.
Subsequent studies were carried out to determine the dose-response of human skin fibroblasts to 4-EB. […] The results of the study are provided graphically in FIG. 3.
as §1, with “culture dishes” for “culture dishes,”, “plus one of the compounds under investigation” for “plus 4-EB”, “at a concentration of 1, 10, 50” for “at either 250 μM”, “or 100” for “or 500”, “PGE-2 in” for “PGE-2”

[2] = system: TPA-induced PGE2 expression in keratinocytes; experiment: TPA induced PGE-2 in human skin keratinocytes (ELISA); assay type: cell-based; settings: Keratinocyte, Example 4 (FIG. 5), TPA 32 nM, read-out: percent inhibition of TPA induced PGE-2
Method: as §1, with “culture dishes” for “culture dishes,”, “plus one of the compounds under investigation” for “plus 4-EB”, “at a concentration of 1, 10, 50” for “at either 250 μM”, “or 100” for “or 500”, “PGE-2 in” for “PGE-2”
Similar in vitro studies as those described in Example 3 were run using human skin keratinocytes. The experimental set up was the same as described for Example 3 but replacing IL-1 with tetradecanoyl phorbol acetate (TPA) at a concentration of 32 nM as the agonist. The compounds tested were 2-ethoxybenzaldehyde (2-EB) and 3-ethoxybenzaldehyde (3-EB) and 4-ethoxybenzaldehyde (4-EB) in concentrations of either 10, 50, or 100 μM.

[3] = Franz cell percutaneous absorption analysis; assay type: in vitro ADME, human; settings: from 1.0% 4-EB lotion; 24 hour period
Method: This lotion was then tested by Franz cell percutaneous absorption analysis to determine how much 4-EB could penetrate human skin over a 24 hour period. The lotion formulation above provided a flux rate of 4-EB through human skin of 30-50 micrograms/hour.

[4] = Homo sapiens, Skin fibroblast, 100 μM, IL-1 500 picograms/ml, 24 hours, read-out: Percent inhibition of IL-1 induced PGE-2
[5] = Homo sapiens, Skin fibroblast, 50 μM, IL-1 500 picograms/ml, 24 hours, read-out: Percent inhibition of IL-1 induced PGE-2

SMILES | inhibition of the IL-1 induction of PGE-2 ([1]; Example 1, 250 μM or 500 μM, IL-1 500 picograms/ml, 24 hours) | IL-1 induction of PGE-2 blocked ([1]; 10 μM) [%] | IL-1 induction of PGE-2 blocked ([1]; 50 μM) [%] | IL-1 induction of PGE-2 blocked ([1]; 100 μM) | inhibition at 100 µM [1, 4] [%] | inhibition at 50 µM [2] [%] | inhibition at 100 µM [2] [%] | flux rate of 4-EB through human skin [3] | inhibition of the IL-1 induced production of PGE-2 (in words) ([1]; Example 3, 10 or 50 μM) | inhibition at 50 µM [1, 5] [%] | inhibition at 10 µM ([1]; Homo sapiens, Skin fibroblast, Example 3 (FIG. 4B), 10 μM, IL-1 500 picograms/ml, 24 hours, read-out: Percent inhibition of IL-1 induced PGE-2) [%] | inhibition at 10 µM ([2]; 10 μM) [%]
CCOc1ccc(C=O)cc1 [4-EB, 4-ethoxybenzaldehyde] | complete inhibition | 35 | 82 | completely blocked | 81.5 | 79.9 | 94.9 | 30-50 micrograms/hour | – | – | – | –
COc1ccc(C=O)cc1 [4-MB, 4-methoxybenzaldehyde] | – | – | – | – | – | – | – | – | did not appear to inhibit | 13.6 | 16.2 | –
CCOc1ccccc1C=O [2-EB, 2-ethoxybenzaldehyde] | – | – | – | – | 82.9 | 76.6 | 83 | – | – | 58.9 | – | 55.2
CCOc1cccc(C=O)c1 [3-EB, 3-ethoxybenzaldehyde] | – | – | – | – | 41.2 | 57.7 | 76.7 | – | – | 42.6 | – | –
